For the experiment, the target named is T1, phospholipase A2.
T1 construct: gene PLA2G1B; not described in the main text; reagent of the PubChem AID 588400 phospholipase counterscreen (possibly the PLA2 reporter enzyme of an ATG4B assay)
Briefly: phospholipase inhibition assay (as PubChem AID […]). The class given is biochemical, Homo sapiens.

Where two headings read alike, the source gives them in different places.

With `O=C(O)c1ccccc1Nc1cc(Cl)ccc1C(=O)O` [lobenzarit], under “read-out: no significant inhibition at concentrations up to 300 μM”, the IC50 is > 300 µM. On to `Cc1c(Cl)cccc1Nc1ccccc1C(=O)O` [tolfenamic acid], for which the IC50 (read-out: IC50) turned out to be 20 µM.

The values above are taken from PMC4572361, “Connecting proteins with drug-like compounds: Open source drug discovery workflows with BindingDB and KNIME” (Database: The Journal of Biological Databases and Curation, 2015).
